These compounds were tested against T1, P2X7 receptor (Homo sapiens, UniProt Q99572) (assay: P2X7 calcium mobilization assay, high throughput, antagonist activity (Example 4A)). Details: not given.
T1 construct: host or cells: SH-SY5Y
T1 sequence (Q99572 1-595): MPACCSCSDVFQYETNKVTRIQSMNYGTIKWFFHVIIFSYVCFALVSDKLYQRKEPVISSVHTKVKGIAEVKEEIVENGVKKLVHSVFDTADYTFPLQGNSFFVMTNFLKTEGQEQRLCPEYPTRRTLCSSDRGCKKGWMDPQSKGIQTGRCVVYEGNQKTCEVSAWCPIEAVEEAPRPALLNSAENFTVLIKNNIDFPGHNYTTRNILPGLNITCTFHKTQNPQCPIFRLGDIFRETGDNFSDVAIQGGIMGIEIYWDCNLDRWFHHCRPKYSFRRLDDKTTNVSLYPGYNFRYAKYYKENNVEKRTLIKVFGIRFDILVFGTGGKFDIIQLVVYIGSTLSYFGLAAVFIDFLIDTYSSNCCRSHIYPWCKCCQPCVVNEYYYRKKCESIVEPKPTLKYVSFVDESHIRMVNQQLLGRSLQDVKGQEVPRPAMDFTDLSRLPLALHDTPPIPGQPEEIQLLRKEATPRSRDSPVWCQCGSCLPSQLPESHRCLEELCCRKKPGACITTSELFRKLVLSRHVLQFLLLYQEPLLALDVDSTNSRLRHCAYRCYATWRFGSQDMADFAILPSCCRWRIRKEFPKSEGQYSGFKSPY
Type: cell-based
Experimental: One day prior to the experiment, cells are plated at a density of 100,000 cells/well in a 96 well black/clear TC plate (Corning® Costar®, Sigma-Aldrich Co., St. Louis, Mo.). […] After one hour dye incubation, wells are rinsed once with 50 μL assay solution, and are then incubated for an hour at room temperature with 100 μL assay solution containing the test compound. […] After the one hour incubation, plates are transferred to a FLIPR^TETRA instrument (Molecular Devices, Sunnyvale, Calif.) for calcium mobilization analysis.
First, the average maximum relative fluorescent unit (RFU) response from the negative control wells (no agonist) is subtracted from the maximum response detected for each of the other experimental wells. Second, average maximum RFU response is calculated for the positive control wells (agonist wells).
Work on O=C(Cc1cn2c(C(=O)NCC34CC5CC(CC(C5)C3)C4)cccc2n1)NCCCO [Compound 27, N-(adamantan-1-ylmethyl)-2-{2-[(3-hydroxypropyl)amino]-2-oxoethyl}imi-dazo[1,2-a]pyridine-5-carboxamide] yielded an IC50 of less than 2000 nM.

Same assay, conditions: 50% decrease in the fluorescence response of cells exposed to 80 μM 2′(3′)-O-(4-benzoyl-benzoyl)adenosine 5′-triphosphate; Example 4A; read-out: IC50
In the case of CC1(C)[C@@H]2CC[C@@H](CNC(=O)c3cccc4nc(CC(=O)NC5CCNC5)cn34)[C@H]1C2 (stereo partly drawn) [Compound 591, N-{[(1R,2R,5R)-6,6-dimethylbicyclo[3.1.1]hept-2-yl]methyl}-2-[2-oxo-2-(pyrrolidin-3-ylamino)ethyl]imidazo [1,2-a]pyridine-5-carboxamide], the IC50 is reported as less than 2000 nM.
In the case of CC1(C)[C@@H]2CC[C@@H](CNC(=O)c3cccc4nc(CC(=O)N5CCCC(CN)C5)cn34)[C@H]1C2 (stereo partly drawn) [Compound 578, 2-{2-[3-(aminomethyl)piperidin-1-yl]-2-oxoethyl}-N-{[(1R,2R,5R)-6,6-dimethylbicyclo[3.1.1]hept-2-yl]methyl}imidazo[1,2-a]pyridine-5-carboxamide], the IC50 is reported as less than 2000 nM.
In the case of CCOC(=O)N1CCN(C(=O)c2cn3c(C(=O)NC[C@@H]4CC[C@H]5C[C@@H]4C5(C)C)cccc3n2)CC1 [Compound 452, ethyl 4-{[5-({[(1S,2R,5S)-6,6-dimethylbicyclo[3.1.1]hept-2-yl]methyl}carbamoyl)imidazo[1,2-a]pyridin-2-yl]carbonyl}piperazine-1-carboxylate], the IC50 is reported as less than 2000 nM.

Same assay, conditions: 50% decrease in the fluorescence response of cells exposed to 80 μM of 2′(3′)-O-(4-benzoyl-benzoyl)adenosine 5′-triphosphate; Example 4A; read-out: IC50
CN(C)C1CCCN(C(=O)Cc2cn3c(C(=O)NCC45CC6CC(CC(C6)C4)C5)cccc3n2)C1 (stereo not drawn) [Compound 740, N-(adamantan-1-ylmethyl)-2-{2-[3-(dimethylamino)piperidin-1-yl]-2-oxoethyl}imidazo[1,2-a]pyridine-5-carboxamide] was tested, and the IC50 was less than 2000 nM.
O=C(NC1CCNCC1)c1cn2c(C(=O)NCC34CC5CC(CC(C5)C3)C4)cccc2n1 [Compound 637, 5-N-(adamantan-1-ylmethyl)-2-N-piperidin-4-ylimidazo[1,2-a]pyridine-2,5-dicarboxamide] gave an IC50 of less than 2000 nM.
In the case of CC(C)CC(CNC(=O)c1cccc2nc(CN3CC[C@@H](N)C3)cn12)c1ccc(Cl)cc1 (stereo partly drawn) [Compound 762, 2-[(3-aminopyrrolidin-1-yl)methyl]-N-[2-(4-chlorophenyl)-4-methylpentyl] imidazo [1,2-a]pyridine-5-carboxamide], the IC50 is reported as less than 2000 nM.
O=C(O)c1cn2c(C(=O)NCC34CC5CC(CC(C5)C3)C4)cccc2n1 [Compound 686, 5-[(adamantan-1-ylmethyl)carbamoyl] imidazo[1,2-a] pyridine-2-carboxylic acid] was tested, and the IC50 was less than 2000 nM.
O=C(NCC12CC3CC(CC(C3)C1)C2)c1cccc2nc(C(Cc3ccncc3)C(=O)O)cn12 (stereo not drawn) [Compound 734, 2-{5-[(adamantan-1-ylmethyl)carbamoyl]imidazo[1,2-a]pyridin-2-yl}-3-pyridia-4-ylpropanoic acid] was tested, and the IC50 was less than 2000 nM.
NC1CCN(C(=O)c2cn3c(C(=O)NCC45CC6CC(CC(C6)C4)C5)cccc3n2)C1 (stereo not drawn) [Compound 625, N-(adamantan-1-ylmethyl)-2-[(3-aminopyrrolidin-1-yl)carbonyl] imidazo[1,2-a]pyridine-5-carboxamide] was tested, and the IC50 was less than 2000 nM.
CC(CN(C)C)NC(=O)c1cn2c(C(=O)NCC34CC5CC(CC(C5)C3)C4)cccc2n1 (stereo not drawn) [Compound 653, 5-N-(adamantan-1-ylmethyl)-2-N-[2-(dimethylamino)-l-methylethyl] imidazo[1,2-a]pyridine-2,5-dicarboxamide] showed an IC50 of less than 2000 nM.

Same assay, conditions: 50% decrease in the fluorescence response of cells exposed to 80 μM of 2′(3′)-O-(4-benzoyl-benzoyl)adenosine 5′-triphosphate; determined as in Example 4A; read-out: IC50
Compound CC(C)CC(CNC(=O)c1cccc2nc(CC(Cc3ccccc3)C(=O)O)cn12)c1ccc(C(F)(F)F)cc1 (stereo not drawn) [Compound 1008, 2-benzyl-3-[5-({4-methyl-2-[4-(trifluoromethyl)phenyl]pentyl}carbamoyl)imidazo[1,2-a]pyridin-2-yl] propanoic acid] has an IC50 of less than 2000 nM.
With O=C(NCC12CC3CC(CC(C3)C1)C2)c1cccc2nc(C(Cc3ccccc3Cl)C(=O)O)cn12 (stereo not drawn) [Compound 844, 2-{5-[(adamantan-1-ylmethyl)carbamoyl]imidazo[1,2-a]pyridin-2-yl}-3-(2-chlorophenyl) propanoic acid] the IC50 was less than 2000 nM.
Compound CC(C)(C)CCNC(=O)Cc1cn2c(C(=O)NCC3(c4cccnc4)CCCCC3)cccc2n1 [Compound 884, 2-{2-[(3,3-dimethylbutyl)amino]-2-oxoethyl}-N-[(1-pyridin-3-ylcyclohexyl)methyl] imidazo[1,2-a] pyridine-5-carboxamide] has an IC50 of less than 2000 nM.

Same assay, conditions: P2X7 calcium mobilization, Example 4A; 50% decrease in the fluorescence response of cells exposed to 80 μM of (2′(3′)-O-(4-benzoyl-benzoyl)adenosine 5′-triphosephate); read-out: IC50
For O=C(NCC1(c2ccc(C(F)(F)F)cc2)CCCCC1)c1cccc2nc(C(F)(F)F)cn12 [Compound 1018, 2-(trifluoromethyl)-N-({1-[4-(trifluoromethyl)phenyl]cyclohexyl}methyl) imidazo [1,2-a]pyridine-5-carboxamide], the IC50 was less than 2000 nM.
With O=C(NCC1(c2ccc(Cl)cc2)CCCCC1)c1cccc2nc(CN3CCCC3)cn12 [Compound 1047, N-{[1-(4-chlorophenyl)cyclohexyl]methyl}-2-(pyrrolidin-1-ylmethyl) imidazo[1,2-a]pyridine-5-carboxamide] the IC50 was less than 2000 nM.
Work on CC(C)CC(CNC(=O)c1cccc2nc(CN3CCOCC3)cn12)c1ccc(Cl)cc1 (stereo not drawn) [Compound 1038, N-[2-(4-chlorophenyl)-4-methylpentyl]-2-(morpholin-4-ylmethyl) imidazo[1,2-a]pyridine-5-carboxamide] yielded an IC50 of less than 2000 nM.
In the case of O=C(NCC(c1ccc(Cl)cc1)N1CCCCC1)c1cccc2ncc(Cl)n12 (stereo not drawn) [Compound 1054, 3-chloro-N-[2-(4-chlorophenyl)-2-piperidin-1-ylethyl]imidazo[1,2-a]pyridine-5-carboxamide], the IC50 is reported as less than 2000 nM.

Same assay, conditions: SH-SY5Y cells; 50% decrease in fluorescence response to 80 μM BzATP; read-out: IC50
With O=C1CN(C(=O)Cc2cn3c(C(=O)NCC45CC6CC(CC(C6)C4)C5)cccc3n2)CCN1 [Compound 46, N-(adamantan-1-ylmethyl)-2-[2-oxo-2-(3-oxopiperazin-1-yl)ethyl]imidazo[1,2-a]pyridine-5-carboxamide] the IC50 was less than 2000 nM.
For O=C(NCC12CC3CC(CC(C3)C1)C2)c1cccc2nc(CNCc3ccccn3)cn12 [Compound 68, N-(adamantan-1-ylmethyl)-2-{[(pyridin-2-ylmethyl)amino]meth-yl}imidazo[1,2-a]pyridine-5-carboxamide], the IC50 was less than 2000 nM.
In the case of CN1CCN(C(=O)c2cn3c(C(=O)NCC45CC6CC(CC(C6)C4)C5)cccc3n2)CC1 [Compound 89, N-(adamantan-1-ylmethyl)-2-[(4-methylpiperazin-1-yl)carbonyl]imidazo[1,2-a]pyridine-5-carboxamide], the IC50 is reported as less than 2000 nM.
CC(C)C(=O)NC1CCN(C(=O)Cc2cn3c(C(=O)NCC45CC6CC(CC(C6)C4)C5)cccc3n2)CC1 [Compound 184, N-(adamantan-1-ylmethyl)-2-{2-[4-(isobutyrylamino)piperidin-1-yl]-2-oxoethyl}imidazo[1,2-a]pyridine-5-carboxamide] was tested, and the IC50 was less than 2000 nM.
Compound COCCC1CCN(C(=O)Cc2cn3c(C(=O)NCC45CC6CC(CC(C6)C4)C5)cccc3n2)CC1 [Compound 35, N-(adamantan-1-ylmethyl)-2-{2-[4-(2-methoxyethyl)piperidin-1-yl]-2-oxoethyl}imidazo[1,2-a]pyridine-5-carboxamide] has an IC50 of less than 2000 nM.
NC1CCCN(CCc2cn3c(C(=O)NCC45CC6CC(CC(C6)C4)C5)cccc3n2)C1 (stereo not drawn) [Compound 118, 2-[2-(3-amino-piperidin-1-yl)-ethyl]-imidazo[1,2-a]pyridine-5-carboxylic acid (adamantan-1-ylmethyl)-amide] showed an IC50 of less than 2000 nM.
In the case of O=C(Cc1cn2c(C(=O)NCC34CC5CC(CC(C5)C3)C4)cccc2n1)NC1CCCCC1 [Compound 149, N-(adamantan-1-ylmethyl)-2-[2-(cyclohexylamino)-2-oxoethyl]imidazo[1,2-a]pyridine-5-carboxamide], the IC50 is reported as less than 2000 nM.

Same assay, conditions: fluorescence response of cells exposed to 80 μM 2′(3′)-O-(4-benzoyl-benzoyl)adenosine 5′-triphosphate; Example 4A; read-out: IC50
Compound CN(C)[S@SP3](=O)(=O)N1CCN(C(=O)c2cn3c(NC(=O)CC45CC6CC(CC(C6)C4)C5)cccc3n2)CC1 [Compound 400, 2-adamantan-1-yl-N-(2-{[4-(dimethylsulfamoyl)piperazin-1-yl]carbonyl}imidazo [1,2-a]pyridin-5-yl)acetamide] has an IC50 of less than 2000 nM.
In the case of CCOC(=O)CN(CC)C(=O)c1cn2c(NC(=O)CC34CC5CC(CC(C5)C3)C4)cccc2n1 [Compound 375, ethyl N-({5-[(adamantan-1-ylacetyl)amino]imidazo [1,2-a]pyridin-2-yl}carbonyl)-N-ethylglycinate], the IC50 is reported as less than 2000 nM.

Reference: US8431593B2, “Heteroaryl amide derivatives” (H. Lundbeck A/S, priority 2006, dated 2013)
